The text below walks through data of patent publication US5786335A, “Sulfhydryl containing peptides for treating vascular disease” (Warner-Lambert Company, priority 1996, dated 1998).

Usually inhibition stands for the relative decrease from the control value, in per cent.

Residues, ends and D or L forms follow the SMILES beside them. No end group written: not given here.

The assay deals with Lp(a) formation (coupling between apo(a) and LDL) (Homo sapiens, UniProt P08519). As to the kind of experiment: in vitro Lp(a) formation assay: coupling of recombinant human apo(a) with LDL, western blot with densitometry or visual inspection. In kind it is biochemical. Details: key to Relative Activity: An easily detectable change from control was assigned as (+); a marked change from control was assigned as (++). Conditions: for inhibition at 125 µM: 125 μM peptide, densitometry of Lp(a) bands; for inhibition at 125 µM / IC50: 37° C. for 30 minutes; for IC50: western blot, read-out: IC50 (concentration required to inhibit 50% of Lp(a) formation). The procedure:
As pointed out above, the peptides of this invention are useful for treating vascular diseases due to their ability to inhibit formation of Lp(a). The compounds have been evaluated in an in vitro assay which established that the subject compounds are potent inhibitors of Lp(a) formation. The assay was carried out by mixing approximately equal quantities of recombinant human apo(a) with low-density lipoprotein (LDL) in a […] microcentrifuge tube. Control vessels contained no invention peptide, whereas test vessels contained a peptide of Formula I. The mixtures were incubated at 37° C. for 30 minutes. The coupling between apo(a) and LDL was quenched by addition of sodium dodecylsulfate (SDS)-PAGE loading buffer. The mixture is next resolved on 4% polyacrylamide gels, and Lp(a) is detected by western blotting using a monospecific human Lp(a) antibody. The intensity of the Lp(a) bands on the blots is measured by a commercial densitometer.
Table I below gives the percent inhibition of Lp(a) formation at 125 μM concentration of representative peptides of the invention, as well as the concentration of representative compounds required to inhibit 50% of Lp(a) formation (IC50).
Additional compounds were evaluated in the above assay, and the western blots were visually inspected for changes in Lp(a) particle formation as a consequence of peptide mediated inhibition. Experimental lanes were visually compared to control lanes and assessed as follows: An easily detectable change from control was assigned as (+); a marked change from control was assigned as (++).
On the technique in general: In western blotting, separated proteins are transferred to a membrane and probed.

Chain of Lp(a) formation (coupling between apo(a) and LDL) (P08519 20-2040): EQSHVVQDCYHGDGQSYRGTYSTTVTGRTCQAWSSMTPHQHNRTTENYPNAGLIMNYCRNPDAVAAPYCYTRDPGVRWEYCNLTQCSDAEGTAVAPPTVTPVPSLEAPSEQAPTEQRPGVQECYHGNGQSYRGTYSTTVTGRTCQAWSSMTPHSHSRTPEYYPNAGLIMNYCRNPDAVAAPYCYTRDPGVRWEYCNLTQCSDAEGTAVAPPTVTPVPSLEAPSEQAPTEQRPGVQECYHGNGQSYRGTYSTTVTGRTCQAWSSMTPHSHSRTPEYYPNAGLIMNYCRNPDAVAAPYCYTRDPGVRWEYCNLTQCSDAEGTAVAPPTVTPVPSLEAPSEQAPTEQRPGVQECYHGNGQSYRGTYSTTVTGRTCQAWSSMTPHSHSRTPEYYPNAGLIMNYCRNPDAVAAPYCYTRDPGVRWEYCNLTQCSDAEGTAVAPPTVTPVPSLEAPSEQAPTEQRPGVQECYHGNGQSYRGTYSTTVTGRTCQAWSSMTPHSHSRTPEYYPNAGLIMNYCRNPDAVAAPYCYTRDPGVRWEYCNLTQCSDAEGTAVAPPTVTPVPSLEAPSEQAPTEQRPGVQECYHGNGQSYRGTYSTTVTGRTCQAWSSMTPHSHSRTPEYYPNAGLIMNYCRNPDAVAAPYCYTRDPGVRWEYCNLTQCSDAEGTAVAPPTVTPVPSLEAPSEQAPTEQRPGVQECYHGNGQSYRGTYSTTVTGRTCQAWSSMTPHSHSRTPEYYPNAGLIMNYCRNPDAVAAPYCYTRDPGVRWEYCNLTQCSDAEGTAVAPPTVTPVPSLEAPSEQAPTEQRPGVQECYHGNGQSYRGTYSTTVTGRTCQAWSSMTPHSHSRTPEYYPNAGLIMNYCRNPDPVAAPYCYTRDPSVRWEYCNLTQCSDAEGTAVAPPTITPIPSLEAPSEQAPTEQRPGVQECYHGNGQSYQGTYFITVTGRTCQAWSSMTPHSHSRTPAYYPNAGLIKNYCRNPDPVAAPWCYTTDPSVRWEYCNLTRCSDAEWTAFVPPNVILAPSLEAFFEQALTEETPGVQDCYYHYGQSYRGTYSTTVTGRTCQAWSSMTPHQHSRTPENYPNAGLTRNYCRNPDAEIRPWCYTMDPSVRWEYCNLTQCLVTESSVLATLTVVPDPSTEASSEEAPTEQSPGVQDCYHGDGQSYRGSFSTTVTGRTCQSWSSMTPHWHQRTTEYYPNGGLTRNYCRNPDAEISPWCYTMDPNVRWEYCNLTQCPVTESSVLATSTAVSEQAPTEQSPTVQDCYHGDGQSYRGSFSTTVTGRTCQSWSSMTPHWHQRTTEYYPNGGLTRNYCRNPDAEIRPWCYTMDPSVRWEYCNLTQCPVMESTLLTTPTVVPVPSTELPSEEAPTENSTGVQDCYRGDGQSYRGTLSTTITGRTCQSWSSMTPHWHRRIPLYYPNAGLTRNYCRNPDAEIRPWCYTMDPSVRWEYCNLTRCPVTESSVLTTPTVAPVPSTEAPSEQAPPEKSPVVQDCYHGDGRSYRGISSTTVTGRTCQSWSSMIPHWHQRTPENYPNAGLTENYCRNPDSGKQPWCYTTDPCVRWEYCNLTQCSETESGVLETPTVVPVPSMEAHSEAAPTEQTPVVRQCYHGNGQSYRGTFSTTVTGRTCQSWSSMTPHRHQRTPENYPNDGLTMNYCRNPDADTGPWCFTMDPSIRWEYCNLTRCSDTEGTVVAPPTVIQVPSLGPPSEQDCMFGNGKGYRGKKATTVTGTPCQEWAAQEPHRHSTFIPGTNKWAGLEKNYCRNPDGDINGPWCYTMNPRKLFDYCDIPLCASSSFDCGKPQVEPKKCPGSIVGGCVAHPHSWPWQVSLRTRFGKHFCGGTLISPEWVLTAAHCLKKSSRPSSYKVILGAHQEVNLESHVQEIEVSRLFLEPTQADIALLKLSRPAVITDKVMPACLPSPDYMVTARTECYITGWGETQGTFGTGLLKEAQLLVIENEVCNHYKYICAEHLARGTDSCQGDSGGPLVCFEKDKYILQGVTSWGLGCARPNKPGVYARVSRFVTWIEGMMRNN

Turning to `NCCCC[C@H](NC(=O)[C@H](Cc1ccc(O)cc1)NC(=O)[C@@H](N)CS)C(=O)O` [Cys--Tyr--Lys] (H-Cys-Tyr-Lys-OH), the inhibition at 125 µM turned out to be 90% and the IC50 came to 50 µM.
Take “IQCYK [Ile--Gln--Cys--Tyr--Lys, Ile-Gln-Cys-Tyr-Lys]”: the inhibition at 125 µM is 50.1% and the IC50 was 109 µM.
With IACYK [Ile--Ala--Cys--Tyr--Lys], the inhibition at 125 µM came to 29.8%.
Take IQCAK [Ile--Gln--Cys--Ala--Lys]: the inhibition at 125 µM is 76.4%.
Regarding AQCYK [Ala--Gln--Cys--Tyr--Lys], the inhibition at 125 µM was determined as 36.9%.
Regarding `CC(=O)N[C@@H](CS)C(=O)N[C@@H](Cc1ccc(O)cc1)C(=O)N[C@@H](CCCCN)C(N)=O` [Ac--Cys--Tyr--Lys--NH2] (Ac-Cys-Tyr-Lys-NH2), where the note is “western blots visually inspected, experimental lanes compared to control lanes”, the “Relative Activity” value is given as “+”.
